Common to all, as to test: NCI tumour cell line growth inhibition, 48 h
In assay [1] the test system is OVCAR-3 ovarian.
For assay [2], the system named is EKVX NSCLC.
Assay [3] deals with NCI-H23 lung.
For assay [4], the system named is SK-OV-3 ovarian.
Assay [5] relates to HOP-92 NSCLC.
The test system of assay [6] is RXF 393 renal.
Assay [7] concerns ACHN renal.
In assay [8] the test system is MDA-MB-231 breast.
Assay [9] concerns HCC-2998 colon.
Assay [10] concerns MDA-MB-435.
Assay [11] has as its system HCT-15 colon.
Assay [12] has as its system SK-MEL-5 melanoma.
Assay [13] has as its system LOX IMVI melanoma.
Assay [14] concerns TK-10 renal.
Assay [15] relates to DU-145 prostate.
Assay [16] concerns HL-60(TB) leukemia.
Assay [17] has as its system HCT-116 colon.
Assay [18] deals with M14 melanoma.

SMILES strings stand for the structures.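 Compound exposure: 48 hours, 5 concentrations, 96-well plates. TGI: concentration producing complete growth inhibition.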 Where only a bound is given, the exact number is not on record here.

Turning to `S=C(/N=c1/sc(Nc2ccccc2)nc2sc3c(c12)CCCC3)Nc1ccccc1`, the TGI in assay [1], in assay [2], in [3], in [4], in assay [5] and in [6] was greater than 62.5 µM in each case. The TGI in [7], in assay [8], in assay [9], in assay [10], in assay [11] and in assay [12] was greater than 62.5 µM in each case. Also, the TGI in assay [13], in assay [14], in assay [15], in assay [16] and in assay [17] was greater than 62.5 µM in each case.

Turning to `O=C(Nc1ccc2nc(-c3ccccc3)cn2c1)Oc1ccccc1`, the TGI in assay [1] is greater than 100 µM; in [2], greater than 100 µM; in [3] it was greater than 100 µM; in assay [4] it was greater than 100 µM; in [5] it was greater than 100 µM; in assay [6], 7.31 µM. Moreover, the TGI was greater than 100 µM in assay [7]; greater than 100 µM in assay [8]; greater than 100 µM in assay [9]; 47.5 µM in assay [10]; greater than 100 µM in [11]; greater than 100 µM in assay [12]. Further, the TGI in assay [13], in assay [14], in [15], in [16], in assay [17] and in [18] was greater than 100 µM each time.

For `c1ccc2c(c1)nc1n2CNCC1`, the TGI in [1], in assay [2], in [3], in [4], in assay [5] and in assay [6] was greater than 100 µM in each case. The TGI in assay [7], in [8], in assay [9], in [10], in assay [11] and in assay [12] was greater than 100 µM each time. In addition, the TGI in assay [13] was 73.3 µM; in assay [14] it was greater than 100 µM; in [15], greater than 100 µM; in [16], greater than 100 µM; in assay [17], greater than 100 µM; in assay [18], greater than 100 µM.

Take `Brc1ccc2c(-c3nc(-c4c[nH]c5ccc(Br)cc45)cs3)c[nH]c2c1`: the TGI worked out at 28 µM in [1]; 6.98 µM in [2]; 13.3 µM in assay [3]; 29.4 µM in assay [4]; 11 µM in assay [5]; 12.4 µM in assay [6]. Also, the TGI is greater than 30 µM in [7]; 18.4 µM in [8]; 5.92 µM in assay [9]; 18.9 µM in [10]; 13.1 µM in assay [11]; 12.3 µM in assay [12]. For the same molecule, the TGI in assay [13] was 5.22 µM; in assay [14], 17.9 µM; in assay [15], 19.1 µM; in assay [16] it was 23.2 µM; in [17], 14.3 µM; in [18], 13.8 µM.

For `NC(N)=N/N=C/c1c(Cl)nc2sccn12`, the TGI is 90.9 µM in assay [1]; greater than 100 µM in assay [2]; greater than 100 µM in assay [3]; greater than 100 µM in assay [4]; 70.6 µM in [5]; 65.1 µM in [6]. The TGI in [7] was 33.4 µM; in assay [8] it was greater than 100 µM; in [9], 34 µM; in [10], greater than 100 µM; in assay [12] it was 29.2 µM; in assay [13] it was 39.6 µM. Besides, the TGI is greater than 100 µM in assay [14]; greater than 100 µM in [15]; 42.1 µM in assay [16]; 31.7 µM in [17]; 34.5 µM in assay [18].

As to `O=P(c1ccccc1)(c1ccccc1)C(NCc1ccccc1)c1ccc(F)cc1` (configuration not stated), the TGI in assay [1] was found to be 27.6 µM; in assay [2], 25.4 µM; in [3] it was 31.3 µM; in assay [4], 34.1 µM; in assay [5] it was 26.6 µM; in assay [6], 28.3 µM. The TGI came to 27.5 µM in [7]; 26.1 µM in [8]; 29.6 µM in assay [9]; 23 µM in [10]; 28.7 µM in [11]; 29.6 µM in assay [12]. Also, the TGI in assay [13] was 28 µM; in assay [14], 32 µM; in assay [15], 45.2 µM; in [16], greater than 100 µM; in assay [17], 25.7 µM; in [18], 27.8 µM.

As to `CC[C@@H]1/C=C/C=C/C[C@H](C)[C@@H](O)[C@](C)(O)C(=O)[C@H](C)[C@@H](O)[C@H](C)C(=O)[C@H](C)[C@@H](O)[C@H](C)/C=C/C(=O)O[C@H]2[C@@H](C)[C@@H](CC1)O[C@]1(O[C@H](CC(C)O)[C@H](C)CC1=O)[C@@H]2C` (some centres not stated), the TGI in assay [1] is 13.1 µM; in assay [2] it was 5.9 µM; in assay [3], 12.4 µM; in assay [4], greater than 19.2 µM; in assay [5] it was 9.98 µM; in assay [6], 7.37 µM. Besides, the TGI is 9.19 µM in assay [7]; 8.47 µM in assay [8]; 8 µM in assay [9]; 10.6 µM in assay [10]; greater than 21.2 µM in assay [11]; 3.53 µM in assay [12]. The TGI was determined as 9.2 µM in [13]; 17.9 µM in assay [14]; 8.78 µM in assay [15]; 11.4 µM in assay [16]; 6.26 µM in assay [17]; 9.41 µM in assay [18].

On to `C=C(C)[C@@H](C(=O)OC)N1C(=O)c2ccccc2C1=O`, for which the TGI in assay [1], in assay [2], in assay [3], in [4], in [5] and in [6] was greater than 100 µM in each case. The TGI in assay [7], in assay [8], in assay [9], in [10], in [11] and in [12] was greater than 100 µM in each case. Further, the TGI in assay [13], in [14], in assay [15], in assay [16], in [17] and in [18] was greater than 100 µM in each case.

For the origin of these results see PubChem BioAssay (NCI).
